Source: patent US20260337208A1, “HETEROCYCLIC DERIVATIVES AS JANUS KINASE INHIBITORS” (CHIESI FARMACEUTICI S.P.A., priority 2022, published 2026)
pIC50: −log10 of the molar value.

Tests used:
JAK1 = JAK1 (Homo sapiens, UniProt P23458); test: Biochemical potency on JAK1, TR-FRET (LANCE Ultra kinase assay); conditions: ATP corresponding to Km; cell-free; read-out: JAK1 inhibitory activity (pIC50) (converted)
How it was run: (§1)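 ULight-JAK-1 (Tyr1023) peptide phosphorylation at Km ATP, 1.5 h r.t.; substrate solution held peptide 30/50/20/10 nM and ATP 20/0.7/0.2/12 μM, enzyme solution 0.15/0.083/0.025/0.144 ng/μL (JAK1/JAK2/JAK3/TYK2). EDTA stop, Eu-PT66 antibody TR-FRET read at 665 nm; 11-point 5-fold dilutions from 20 μM; IC50 by variable-slope fit.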

JAK2 = JAK2 (Homo sapiens, UniProt O60674); test: Biochemical potency on JAK2, TR-FRET (LANCE Ultra kinase assay); conditions: ATP corresponding to Km; cell-free; read-out: JAK2 inhibitory activity (pIC50) (converted)
How it was run: as §1

JAK3 = target: T1, JAK3 (Homo sapiens, UniProt P52333); test: Biochemical potency on JAK3, TR-FRET (LANCE Ultra kinase assay); conditions: ATP corresponding to Km; cell-free; read-out: JAK3 inhibitory activity (pIC50) (converted)
T1 sequence (P52333 1-1124): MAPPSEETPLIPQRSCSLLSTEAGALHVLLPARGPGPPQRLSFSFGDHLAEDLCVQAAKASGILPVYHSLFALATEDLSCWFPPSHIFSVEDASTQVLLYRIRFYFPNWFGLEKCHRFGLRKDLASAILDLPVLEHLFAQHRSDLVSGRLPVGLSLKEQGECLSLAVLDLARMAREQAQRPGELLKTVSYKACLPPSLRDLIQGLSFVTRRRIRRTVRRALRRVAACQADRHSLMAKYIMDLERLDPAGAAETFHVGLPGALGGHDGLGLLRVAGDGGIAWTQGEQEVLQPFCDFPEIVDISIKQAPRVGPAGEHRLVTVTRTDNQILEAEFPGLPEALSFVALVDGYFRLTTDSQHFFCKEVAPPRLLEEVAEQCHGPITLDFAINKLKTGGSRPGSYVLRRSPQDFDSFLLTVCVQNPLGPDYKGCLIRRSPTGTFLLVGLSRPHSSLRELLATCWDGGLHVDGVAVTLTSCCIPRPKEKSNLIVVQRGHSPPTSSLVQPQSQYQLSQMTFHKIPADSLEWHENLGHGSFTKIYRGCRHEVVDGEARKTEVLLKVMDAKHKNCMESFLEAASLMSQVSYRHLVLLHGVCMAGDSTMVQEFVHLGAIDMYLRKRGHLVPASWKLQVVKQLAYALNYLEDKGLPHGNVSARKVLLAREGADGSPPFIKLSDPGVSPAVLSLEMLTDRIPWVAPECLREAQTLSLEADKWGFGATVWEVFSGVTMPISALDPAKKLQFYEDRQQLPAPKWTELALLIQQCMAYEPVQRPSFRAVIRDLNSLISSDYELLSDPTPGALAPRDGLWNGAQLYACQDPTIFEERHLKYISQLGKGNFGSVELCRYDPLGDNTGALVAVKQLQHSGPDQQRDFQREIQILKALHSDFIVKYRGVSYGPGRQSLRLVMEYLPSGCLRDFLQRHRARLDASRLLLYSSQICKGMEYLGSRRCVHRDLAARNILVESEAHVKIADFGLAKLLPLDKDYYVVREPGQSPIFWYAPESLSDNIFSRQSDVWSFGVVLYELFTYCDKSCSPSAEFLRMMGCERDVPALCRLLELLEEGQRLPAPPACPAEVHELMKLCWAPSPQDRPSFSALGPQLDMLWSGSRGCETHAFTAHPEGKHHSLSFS
How it was run: as §1

TYK2 = TYK2 (Homo sapiens, UniProt P29597); test: Biochemical potency on Tyk2, TR-FRET (LANCE Ultra kinase assay); conditions: ATP corresponding to Km; cell-free; read-out: TYK2 inhibitory activity (pIC50) (converted)
How it was run: as §1

[1] = system: pSTAT6 in BEAS-2B human cell line; test: Inhibition of IL-13 induced pSTAT6 in BEAS; format: cell-based; conditions: for pIC50: Homo sapiens, BEAS-2B, 0.5 h, IL-13 trigger, 30 min, parent compound; for Fold difference parent vs predicted acid metabolite: ratio=IC50 predicted acid metabolite/IC50 ester
How it was run: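 BEAS-2B cells grown 48 h, pre-treated 30 min with compound, then stimulated 30 min with IL-13. Lysate pSTAT6 (Tyr641) measured by sandwich ELISA. Eleven 5-fold dilutions from 10 μM, in duplicate, fitted to IC50.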

Chain of TYK2 (P29597 whole entry): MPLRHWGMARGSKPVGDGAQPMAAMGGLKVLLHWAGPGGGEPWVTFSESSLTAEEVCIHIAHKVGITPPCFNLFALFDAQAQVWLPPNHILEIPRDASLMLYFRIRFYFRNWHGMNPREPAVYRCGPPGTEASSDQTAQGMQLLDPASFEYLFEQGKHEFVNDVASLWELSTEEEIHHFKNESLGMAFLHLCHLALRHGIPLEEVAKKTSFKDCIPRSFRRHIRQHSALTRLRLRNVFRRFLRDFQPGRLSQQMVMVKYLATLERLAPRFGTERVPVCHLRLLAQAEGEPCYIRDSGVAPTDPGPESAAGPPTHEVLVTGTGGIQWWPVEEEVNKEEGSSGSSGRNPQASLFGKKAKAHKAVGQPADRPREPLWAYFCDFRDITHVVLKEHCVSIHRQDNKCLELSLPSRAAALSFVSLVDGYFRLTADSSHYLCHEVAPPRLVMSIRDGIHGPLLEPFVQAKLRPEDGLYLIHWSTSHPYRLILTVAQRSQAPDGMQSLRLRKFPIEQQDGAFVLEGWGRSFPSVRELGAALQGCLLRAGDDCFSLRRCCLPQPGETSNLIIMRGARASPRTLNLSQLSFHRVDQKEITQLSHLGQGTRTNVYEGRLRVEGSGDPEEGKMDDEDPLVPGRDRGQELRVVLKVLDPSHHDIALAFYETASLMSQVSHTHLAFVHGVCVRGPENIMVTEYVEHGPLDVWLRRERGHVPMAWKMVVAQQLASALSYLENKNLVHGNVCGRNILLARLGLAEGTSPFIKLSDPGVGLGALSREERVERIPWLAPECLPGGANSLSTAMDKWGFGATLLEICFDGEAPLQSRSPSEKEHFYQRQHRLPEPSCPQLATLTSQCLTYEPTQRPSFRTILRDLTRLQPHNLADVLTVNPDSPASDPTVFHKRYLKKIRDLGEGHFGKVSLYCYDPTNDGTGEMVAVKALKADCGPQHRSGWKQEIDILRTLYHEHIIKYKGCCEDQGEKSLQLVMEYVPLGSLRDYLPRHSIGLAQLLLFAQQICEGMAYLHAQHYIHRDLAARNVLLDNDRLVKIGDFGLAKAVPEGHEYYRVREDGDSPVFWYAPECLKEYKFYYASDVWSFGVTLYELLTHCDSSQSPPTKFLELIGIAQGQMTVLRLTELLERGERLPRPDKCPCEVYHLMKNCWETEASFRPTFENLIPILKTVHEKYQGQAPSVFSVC
Chain of JAK2 (O60674 whole entry): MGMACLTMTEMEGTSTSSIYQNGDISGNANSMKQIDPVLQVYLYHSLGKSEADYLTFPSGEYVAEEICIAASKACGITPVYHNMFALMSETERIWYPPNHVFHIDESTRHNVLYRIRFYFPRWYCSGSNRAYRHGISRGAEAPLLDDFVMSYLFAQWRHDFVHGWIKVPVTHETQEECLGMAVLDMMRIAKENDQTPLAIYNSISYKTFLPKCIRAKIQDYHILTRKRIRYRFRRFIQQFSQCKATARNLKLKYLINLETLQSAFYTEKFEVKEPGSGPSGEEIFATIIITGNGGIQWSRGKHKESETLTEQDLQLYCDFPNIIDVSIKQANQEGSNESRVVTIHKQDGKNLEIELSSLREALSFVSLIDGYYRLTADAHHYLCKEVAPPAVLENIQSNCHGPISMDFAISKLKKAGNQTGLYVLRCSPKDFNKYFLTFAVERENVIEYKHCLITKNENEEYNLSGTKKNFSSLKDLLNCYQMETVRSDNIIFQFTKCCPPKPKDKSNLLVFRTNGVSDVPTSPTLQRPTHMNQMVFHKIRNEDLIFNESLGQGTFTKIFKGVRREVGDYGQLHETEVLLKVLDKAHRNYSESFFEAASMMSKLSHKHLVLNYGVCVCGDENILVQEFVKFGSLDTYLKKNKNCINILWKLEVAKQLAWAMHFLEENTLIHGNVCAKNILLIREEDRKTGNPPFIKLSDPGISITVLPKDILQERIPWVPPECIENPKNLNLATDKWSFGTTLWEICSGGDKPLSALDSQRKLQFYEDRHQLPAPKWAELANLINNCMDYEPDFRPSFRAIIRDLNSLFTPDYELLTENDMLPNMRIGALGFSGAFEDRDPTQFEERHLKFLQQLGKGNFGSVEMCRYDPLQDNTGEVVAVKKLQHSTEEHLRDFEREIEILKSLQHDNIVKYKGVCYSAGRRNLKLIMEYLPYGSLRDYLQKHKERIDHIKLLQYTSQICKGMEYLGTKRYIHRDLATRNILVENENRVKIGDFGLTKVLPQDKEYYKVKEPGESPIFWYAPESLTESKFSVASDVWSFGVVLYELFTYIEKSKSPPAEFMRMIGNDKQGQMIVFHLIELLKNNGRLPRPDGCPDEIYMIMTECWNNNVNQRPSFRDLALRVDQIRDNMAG
Chain of JAK1 (P23458 whole entry): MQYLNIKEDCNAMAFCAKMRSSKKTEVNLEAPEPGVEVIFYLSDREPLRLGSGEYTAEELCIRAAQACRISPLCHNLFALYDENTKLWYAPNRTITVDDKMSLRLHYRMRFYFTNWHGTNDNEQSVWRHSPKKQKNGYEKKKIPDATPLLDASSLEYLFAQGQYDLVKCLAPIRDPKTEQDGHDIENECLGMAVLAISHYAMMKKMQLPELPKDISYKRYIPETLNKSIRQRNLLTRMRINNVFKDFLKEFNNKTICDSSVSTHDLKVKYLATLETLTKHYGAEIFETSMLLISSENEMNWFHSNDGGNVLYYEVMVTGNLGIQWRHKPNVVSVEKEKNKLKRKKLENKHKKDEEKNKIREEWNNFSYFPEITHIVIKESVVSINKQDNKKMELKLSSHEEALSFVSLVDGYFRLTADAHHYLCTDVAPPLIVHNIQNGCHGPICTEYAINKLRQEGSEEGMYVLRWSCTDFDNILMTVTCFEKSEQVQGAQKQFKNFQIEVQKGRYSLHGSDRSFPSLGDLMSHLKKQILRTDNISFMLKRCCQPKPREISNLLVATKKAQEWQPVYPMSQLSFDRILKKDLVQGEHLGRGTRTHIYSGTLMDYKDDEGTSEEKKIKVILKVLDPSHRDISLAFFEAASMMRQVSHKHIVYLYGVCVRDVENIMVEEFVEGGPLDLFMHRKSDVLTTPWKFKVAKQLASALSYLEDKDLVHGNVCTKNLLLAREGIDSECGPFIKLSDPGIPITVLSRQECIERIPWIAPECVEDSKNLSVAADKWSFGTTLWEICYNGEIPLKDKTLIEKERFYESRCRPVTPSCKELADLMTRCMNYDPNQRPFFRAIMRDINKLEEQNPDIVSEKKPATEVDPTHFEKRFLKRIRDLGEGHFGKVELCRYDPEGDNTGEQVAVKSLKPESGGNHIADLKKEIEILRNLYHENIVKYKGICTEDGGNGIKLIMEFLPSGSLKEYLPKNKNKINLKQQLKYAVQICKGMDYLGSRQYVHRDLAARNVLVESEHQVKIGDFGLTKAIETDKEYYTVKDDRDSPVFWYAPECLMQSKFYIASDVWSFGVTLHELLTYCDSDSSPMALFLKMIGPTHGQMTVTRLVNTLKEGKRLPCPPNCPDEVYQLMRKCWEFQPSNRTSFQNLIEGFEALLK

| IC50 (JAK1) [nM] | IC50 (JAK2) [nM] | IC50 (JAK3) [nM] | IC50 (TYK2) [nM] | Structure (SMILES) | pIC50 [1] | Fold difference parent vs predicted acid metabolite [1] |
| --- | --- | --- | --- | --- | --- | --- |
| 5.01 to 50.1 | ≤ 5.01 | ≤ 5.01 | 5.01 to 50.1 | COc1cc2c(cc1-n1nc(C(=O)NCCCN3CCC(C(=O)OC4CCN(C)CC4)CC3)c3cnc(-c4cnn5cccnc45)cc31)OCCN2 [Example 26, 1-methylpiperidin-4-yl 1-(3-(1-(6-methoxy-3,4-dihydro-2H-benzo[b][1,4]oxazin-7-yl)-6-(pyrazolo[1,5-a]pyrimidin-3-yl)-1H-pyrazolo[4,3-c]pyridine-3-carboxamido)propyl)piperidine-4-carboxylate] | 7.30 to 8.30 |  |
| ≤ 5.01 | ≤ 5.01 | ≤ 5.01 | 5.01 to 50.1 | CCOC(=O)C1CCCN(CCNC(=O)c2nn(-c3cc4c(cc3OC)NCCO4)c3cc(-c4cnn5cccnc45)ncc23)C1 (centres unmarked) [Example 27, ethyl 1-(2-(1-(6-methoxy-3,4-dihydro-2H-benzo[b][1,4]oxazin-7-yl)-6-(pyrazolo[1,5-a]pyrimidin-3-yl)-1H-pyrazolo[4,3-c]pyridine-3-carboxamido)ethyl)piperidine-3-carboxylate] | 7.30 to 8.30 |  |
| ≤ 5.01 | ≤ 5.01 | ≤ 5.01 | 5.01 to 50.1 | CCOC(=O)C1(F)CCN(CCNC(=O)c2nn(-c3cc4c(cc3OC)NCCO4)c3cc(-c4cnn5cccnc45)ncc23)CC1 [Example 28, ethyl 4-fluoro-1-(2-(1-(6-methoxy-3,4-dihydro-2H-benzo[b][1,4]oxazin-7-yl)-6-(pyrazolo[1,5-a]pyrimidin-3-yl)-1H-pyrazolo[4,3-c]pyridine-3-carboxamido)ethyl)piperidine-4-carboxylate] | 7.30 to 8.30 |  |
| ≤ 5.01 | ≤ 5.01 | ≤ 5.01 | 5.01 to 50.1 | COC(=O)[C@@H]1CCN(CCNC(=O)c2nn(-c3cc4c(cc3OC)NCCO4)c3cc(-c4cnn5cccnc45)ncc23)C1 [Example 29, methyl (R)-1-(2-(1-(6-methoxy-3,4-dihydro-2H-benzo[b][1,4]oxazin-7-yl)-6-(pyrazolo[1,5-a]pyrimidin-3-yl)-1H-pyrazolo[4,3-c]pyridine-3-carboxamido)ethyl)pyrrolidine-3-carboxylate] | ≥ 8.30 | kkk (200>ratio≥100) |
| ≤ 5.01 | ≤ 5.01 | ≤ 5.01 | 5.01 to 50.1 | COC(=O)[C@H]1CCN(CCNC(=O)c2nn(-c3cc4c(cc3OC)NCCO4)c3cc(-c4cnn5cccnc45)ncc23)C1 [Example 30, methyl (S)-1-(2-(1-(6-methoxy-3,4-dihydro-2H-benzo[b][1,4]oxazin-7-yl)-6-(pyrazolo[1,5-a]pyrimidin-3-yl)-1H-pyrazolo[4,3-c]pyridine-3-carboxamido)ethyl)pyrrolidine-3-carboxylate] | 7.30 to 8.30 | kkkk (ratio≥200) |
| ≤ 5.01 | ≤ 5.01 | ≤ 5.01 | 5.01 to 50.1 | CCOC(=O)C1CN(CCNC(=O)c2nn(-c3cc4c(cc3OC)NCCO4)c3cc(-c4cnn5cccnc45)ncc23)C1 [Example 31, ethyl 1-(2-(1-(6-methoxy-3,4-dihydro-2H-benzo[b][1,4]oxazin-7-yl)-6-(pyrazolo[1,5-a]pyrimidin-3-yl)-1H-pyrazolo[4,3-c]pyridine-3-carboxamido)ethyl)azetidine-3-carboxylate] | 7.30 to 8.30 |  |
| ≤ 5.01 | ≤ 5.01 | ≤ 5.01 | 5.01 to 50.1 | CCOC(=O)[C@@H]1C[C@@H]2CN(CCNC(=O)c3nn(-c4cc5c(cc4OC)NCCO5)c4cc(-c5cnn6cccnc56)ncc34)C[C@@H]2C1 [Example 32] | 7.30 to 8.30 |  |
| ≤ 5.01 | ≤ 5.01 | ≤ 5.01 | 5.01 to 50.1 | CCOC(=O)[C@H]1[C@@H]2CN(CCNC(=O)c3nn(-c4cc5c(cc4OC)NCCO5)c4cc(-c5cnn6cccnc56)ncc34)C[C@@H]21 [Example 33, ethyl (1R,5S,6r)-3-(2-(1-(6-methoxy-3,4-dihydro-2H-benzo[b][1,4]oxazin-7-yl)-6-(pyrazolo[1,5-a]pyrimidin-3-yl)-1H-pyrazolo[4,3-c]pyridine-3-carboxamido)ethyl)-3-azabicyclo[3.1.0]hexane-6-carboxylate] | 7.30 to 8.30 |  |
| ≤ 5.01 | ≤ 5.01 | ≤ 5.01 | 5.01 to 50.1 | CCOC(=O)C1(C)CCN(CCNC(=O)c2nn(-c3cc4c(cc3OC)NCCO4)c3cc(-c4cnn5cccnc45)ncc23)CC1 [Example 34, ethyl 1-(2-(1-(6-methoxy-3,4-dihydro-2H-benzo[b][1,4]oxazin-7-yl)-6-(pyrazolo[1,5-a]pyrimidin-3-yl)-1H-pyrazolo[4,3-c]pyridine-3-carboxamido)ethyl)-4-methylpiperidine-4-carboxylate] | 7.30 to 8.30 |  |
| ≤ 5.01 | ≤ 5.01 | ≤ 5.01 | 5.01 to 50.1 | CCOC(=O)CC1CCN(CCNC(=O)c2nn(-c3cc4c(cc3OC)NCCO4)c3cc(-c4cnn5cccnc45)ncc23)CC1 [Example 35, ethyl 2-(1-(2-(1-(6-methoxy-3,4-dihydro-2H-benzo[b][1,4]oxazin-7-yl)-6-(pyrazolo[1,5-a]pyrimidin-3-yl)-1H-pyrazolo[4,3-c]pyridine-3-carboxamido)ethyl)piperidin-4-yl)acetate] | ≥ 8.30 | kkkk (ratio≥200) |
| ≤ 5.01 | 5.01 to 50.1 | ≤ 5.01 | 5.01 to 50.1 | CCOC(=O)C1CN(CCNC(=O)c2nn(-c3cc4c(cc3OC)NCCO4)c3cc(-c4cnn5cccnc45)ncc23)CCN1C (centres unmarked) [Example 36, ethyl 4-(2-(1-(6-methoxy-3,4-dihydro-2H-benzo[b][1,4]oxazin-7-yl)-6-(pyrazolo[1,5-a]pyrimidin-3-yl)-1H-pyrazolo[4,3-c]pyridine-3-carboxamido)ethyl)-1-methylpiperazine-2-carboxylate] | 7.30 to 8.30 |  |
| 5.01 to 50.1 | ≤ 5.01 | ≤ 5.01 | 5.01 to 50.1 | COC(=O)Cc1cccc(CN(C)CCNC(=O)c2nn(-c3cc4c(cc3OC)NCCO4)c3cc(-c4cnn5cccnc45)ncc23)c1 [Example 37, methyl 2-(3-(((2-(1-(6-methoxy-3,4-dihydro-2H-benzo[b][1,4]oxazin-7-yl)-6-(pyrazolo[1,5-a]pyrimidin-3-yl)-1H-pyrazolo[4,3-c]pyridine-3-carboxamido)ethyl)(methyl)amino)methyl)phenyl)acetate] | 7.30 to 8.30 |  |
| 5.01 to 50.1 | 5.01 to 50.1 | ≤ 5.01 | 5.01 to 50.1 | CCOC(=O)C1CCN(CCNC(=O)c2nn(-c3cc4c(cc3OC)NCCC4)c3cc(-c4cnn5cccnc45)ncc23)CC1 [Example 38, ethyl 1-(2-(1-(7-methoxy-1,2,3,4-tetrahydroquinolin-6-yl)-6-(pyrazolo[1,5-a]pyrimidin-3-yl)-1H-pyrazolo[4,3-c]pyridine-3-carboxamido)ethyl)piperidine-4-carboxylate] | ≥ 8.30 |  |
| ≤ 5.01 | ≤ 5.01 | ≤ 5.01 | 5.01 to 50.1 | CCOC(=O)COC(=O)Nc1nn(-c2cc3c(cc2OC)NCCO3)c2cc(-c3cnn4cccnc34)ncc12 [Example 39, ethyl 2-(((1-(6-methoxy-3,4-dihydro-2H-benzo[b][1,4]oxazin-7-yl)-6-(pyrazolo[1,5-a]pyrimidin-3-yl)-1H-pyrazolo[4,3-c]pyridin-3-yl)carbamoyl)oxy)acetate] | 7.30 to 8.30 | kkkk (ratio≥200) |
